Here are results for seven molecules from patent US8969629B2, “Cyclic compound, production process thereof, radiation-sensitive composition and resist pattern formation method” (Mitsubishi Gas Chemical Company, Inc., priority 2009, dated 2015).

A short description of this data set: Solubility test of compound in safe solvent. The format is physicochemical. The settings on record: for dissolution amount in CHN: cyclohexanone (CHN); for dissolution amount in PGME: propylene glycol monomethyl ether (PGME). The source says: A: 5.0 wt %≦dissolution amount
B: 3.0 wt %≦dissolution amount<5.0 wt %
C: dissolution amount<3.0 wt %

SMILES strings stand for the structures.

Turning to `Oc1ccc(C2c3cc(c(OC4CCCCC4)cc3O)C(c3ccc(O)cc3)c3cc(c(O)cc3OC3CCCCC3)C(c3ccc(O)cc3)c3cc(c(OC4CCCCC4)cc3O)C(c3ccc(O)cc3)c3cc2c(O)cc3OC2CCCCC2)cc1` (centres unmarked) [CR-1A], the “dissolution amount in CHN” value is listed as “A (5.0 wt %≦dissolution amount)” and the “dissolution amount in PGME” value is recorded as “A (5.0 wt %≦dissolution amount)”.

As for `Oc1ccc(C2c3cc(c(OC4CCCCC4)cc3O)C(c3ccc(O)c(O)c3)c3cc(c(O)cc3OC3CCCCC3)C(c3ccc(O)c(O)c3)c3cc(c(OC4CCCCC4)cc3O)C(c3ccc(O)c(O)c3)c3cc2c(O)cc3OC2CCCCC2)cc1O` (centres unmarked) [CR-2A], the “dissolution amount in CHN” value is “A (5.0 wt %≦dissolution amount)” and the “dissolution amount in PGME” value was “A (5.0 wt %≦dissolution amount)”.

As for `CC1CCC(Oc2cc(O)c3cc2C(c2ccc(O)cc2)c2cc(c(O)cc2OC2CCC(C)CC2)C(c2ccc(O)cc2)c2cc(c(OC4CCC(C)CC4)cc2O)C(c2ccc(O)cc2)c2cc(c(O)cc2OC2CCC(C)CC2)C3c2ccc(O)cc2)CC1` (centres unmarked) [CR-3A], the “dissolution amount in CHN” value is recorded as “A (5.0 wt %≦dissolution amount)” and the “dissolution amount in PGME” value is on record as “A (5.0 wt %≦dissolution amount)”.

Regarding `Cc1cc(C2c3cc(c(OC4CCC(C)CC4)cc3O)C(c3ccc(O)c(O)c3)c3cc(c(O)cc3OC3CCC(C)CC3)C(c3ccc(O)c(O)c3)c3cc(c(OC4CCC(C)CC4)cc3O)C(c3ccc(O)c(O)c3)c3cc2c(O)cc3OC2CCC(C)CC2)ccc1O` (centres unmarked) [CR-4A], the “dissolution amount in CHN” value is recorded as “A (5.0 wt %≦dissolution amount)” and the “dissolution amount in PGME” value is reported as “A (5.0 wt %≦dissolution amount)”.

In the case of `CC1CC(Oc2cc(O)c3cc2C(c2ccc(O)c(O)c2)c2cc(c(O)cc2OC2CC(C)CC(C)(C)C2)C(c2ccc(O)c(O)c2)c2cc(c(OC4CC(C)CC(C)(C)C4)cc2O)C(c2ccc(O)c(O)c2)c2cc(c(O)cc2OC2CC(C)CC(C)(C)C2)C3c2ccc(O)c(O)c2)CC(C)(C)C1` (centres unmarked) [CR-7A], the “dissolution amount in CHN” value was “A (5.0 wt %≦dissolution amount)” and the “dissolution amount in PGME” value is on record as “A (5.0 wt %≦dissolution amount)”.

As for `COc1cc(O)c2cc1C(c1ccc(C)cc1C)c1cc(c(O)cc1OC)C(c1ccc(C)cc1C)c1cc(c(OC)cc1O)C(c1ccc(C)cc1C)c1cc(c(O)cc1OC)C2c1ccc(C)cc1C` (centres unmarked) [CR-8A, reference compound], the “dissolution amount in CHN” value is given as “C (dissolution amount<3.0 wt %)” and the “dissolution amount in PGME” value is listed as “C (dissolution amount<3.0 wt %)”.

On to `CCOc1cc(O)c2cc1C(c1ccc(OC)cc1)c1cc(c(O)cc1OCC)C(c1ccc(OC)cc1)c1cc(c(OCC)cc1O)C(c1ccc(OC)cc1)c1cc(c(O)cc1OCC)C2c1ccc(OC)cc1` (centres unmarked) [CR-9A, reference compound], for which the “dissolution amount in CHN” value is reported as “C (dissolution amount<3.0 wt %)” and the “dissolution amount in PGME” value was “C (dissolution amount<3.0 wt %)”.
